Results on 4 substances are retold here after patent publication US7795226B2, “Control of radiation injury” (Biotempt B.V., priority 2006, dated 2010).

“And” between values parts separate entries of the source, which are not always exact repeats. Identical values can stand only once.

Test [1] has as its system BALB/c mice exposed whole body to 10 Gy 137Cs-γ-irradiation. In words: Whole body γ-irradiation (10 Gy), peptide 1.5 hours after irradiation. It counts as in vivo. The following applies: 10 mg/kg i.p. 1.5 hours after 10 Gy; for Watery eyes / Weight loss: affected/total; for Mortality: dead/total. The protocol:
(§1) In the first experiment, 12-week-old female BALB/c mice were treated intraperitoneally with a single injection of either PBS (n=9) or with a peptide (LQGV (SEQ ID NO:117), VLPALP (SEQ ID NO:140), LPGCPRGVNPVVS (SEQ ID NO:114), MTRVLQGVLPALPQVVC (SEQ ID NO:113); n=8, 10 mg/kg). One and a half hours after the treatment, mice were exposed whole body to a single dose of 10 Gy ^137Cs-γ-irradiation. In the second experiment, 12-week-old female BALB/c mice were first exposed whole body to a single dose of 10 Gy ^137Cs-γ-irradiation and then 1.5 hours after the irradiation treated intraperitoneally with a single injection of either PBS (n=9) or with a peptide (n=8 or 9, 10 mg/kg).

Test [2] has the same test system. The test is described as follows: Whole body γ-irradiation (10 Gy), peptide 1.5 hours before irradiation. It counts as in vivo. The following applies: 10 mg/kg i.p. 1.5 hours before 10 Gy; for Watery eyes / Weight loss: affected/total; for Mortality: dead/total. The protocol: as §1
The test system of test [3] is LPS-induced septic shock in mice. The following applies: single treatment after high dose LPS injection; cited from earlier work.
The test system is the same in test [4]. In words: comparative trial MTR and AQGV from two sources, LPS sickness scores. In kind it is in vivo. Also noted: key to Sickness Score, individual mouse: 0: No abnormalities.; 1: Percolated fur, but no detectable behavior differences compared to normal mice.; 2: Percolated fur, huddle reflex, responds to stimuli (such as tap on cage), just as active during handling as healthy mouse.; 3: Slower response to tap on cage, passive or docile when handled, but still curious when alone in a new setting.; 4: Lack of curiosity, little or no response to stimuli, quite immobile.; 5: Labored breathing, inability or slow to self-right after being rolled onto back (moribund, sacrificed).; Dead. The following applies: LPS 10-11 mg/kg; for Survival %: group of six. From the text: Mice were scored for sickness severity using the following measurement scheme: • 0 No abnormalities. • 1 Percolated fur, but no detectable behavior differences compared to normal mice. • 2 Percolated fur, huddle reflex, responds to stimuli (such as tap on cage), just as active during handling as healthy mouse. • 3 Slower response to tap on cage, passive or docile when handled, but still curious when alone in a new setting. • 4 Lack of curiosity, little or no response to stimuli, quite immobile. • 5 Labored breathing, inability or slow to self-right after being rolled onto back (moribund, sacrificed). • D Dead.
A comparative trial was set up to compare peptide MTR and AQGV (SEQ ID NO:120), each obtained from two commercial sources. The comparative trial comprised six groups of six animals; two groups (1A and 1B) receiving placebo (PBS), one group ([…]), one group (3) receiving peptide MTR (source Ansynth), one group (4) receiving peptide AQGV (SEQ ID NO:120) (source Pepscan) and one group (5) receiving peptide AQGV (SEQ ID NO:120) (source Ansynth). Peptide/placebo in these groups was administered two hours after LPS. LPS (source) was used at 10 to 11 mg/kg. Sickness scores were done at 0, 2, 22, 26, 42, and 48 hours after LPS injection.
Comparative trial MTR and AQGV (SEO ID NO:120), each derived from two sources, all at 5 mg/kg.

Setting [5] is: 0 hours (LPS treatment), peptide from Ansynth (#Ansynth 12, #Ansynth 46) 5 mg/kg.
The mark [6] stands for this setting: 0 hours (LPS treatment), peptide from Diosynth BV (#970, #971) 5 mg/kg.
The mark [7] stands for this setting: 2 hours (compound treatment), peptide from Ansynth (#Ansynth 12, #Ansynth 46) 5 mg/kg.
[8] abbreviates: 2 hours (compound treatment), peptide from Diosynth BV (#970, #971) 5 mg/kg.
Where [9] appears, read: 22 hours, peptide from Ansynth (#Ansynth 12, #Ansynth 46) 5 mg/kg.
The mark [10] stands for this setting: 22 hours, peptide from Diosynth BV (#970, #971) 5 mg/kg.
Setting [11] is: 26 hours, peptide from Ansynth (#Ansynth 12, #Ansynth 46) 5 mg/kg.
Where [12] appears, read: 26 hours, peptide from Diosynth BV (#970, #971) 5 mg/kg.
Where [13] appears, read: 42 hours, peptide from Ansynth (#Ansynth 12, #Ansynth 46) 5 mg/kg.
The mark [14] stands for this setting: 42 hours, peptide from Diosynth BV (#970, #971) 5 mg/kg.
Where [15] appears, read: 48 hours, peptide from Ansynth (#Ansynth 12, #Ansynth 46) 5 mg/kg.
[16] abbreviates: 48 hours, peptide from Diosynth BV (#970, #971) 5 mg/kg.
[17] abbreviates: peptide from Ansynth (#Ansynth 12, #Ansynth 46) 5 mg/kg.
Setting [18] is: peptide from Diosynth BV (#970, #971) 5 mg/kg.

With LQGV, the Watery eyes in test [1] (day 0 after irradiation) is 0/9; in test [1] (day 4 after irradiation), 3/9; in test [2] (day 0 after irradiation), 0/8; in test [2] (day 4 after irradiation), 0/8. Also, the Weight loss in test [1] (day 0 after irradiation) is recorded as 0/9; in test [1] (day 4 after irradiation) it was 9/9; in test [2] (day 0 after irradiation), 0/8; in test [2] (day 4 after irradiation), 8/8. Also, the Mortality was 0/9 in test [1] (day 0 after irradiation); 0/9 in test [1] (day 3 after irradiation); 0/9 in test [1] (day 4 after irradiation); 1/9 in test [1] (day 5 after irradiation); 6/9 in test [1] (day 6 after irradiation); 9/9 in test [1] (day 7 after irradiation). Further, the Mortality in test [2] (day 0 after irradiation) is 0/8; in test [2] (day 3 after irradiation) it was 0/8; in test [2] (day 4 after irradiation), 0/8; in test [2] (day 5 after irradiation), 0/8; in test [2] (day 6 after irradiation), 7/8; in test [2] (day 7 after irradiation) it was 8/8.

For the substance VLPALP (hexamer peptide), the Watery eyes in test [1] (day 0 after irradiation) is on record as 0/9; in test [1] (day 4 after irradiation), 0/9; in test [2] (day 0 after irradiation) it was 0/8; in test [2] (day 4 after irradiation), 0/8. Further, the Weight loss in test [1] (day 0 after irradiation) is recorded as 0/9; in test [1] (day 4 after irradiation) it was 9/9; in test [2] (day 0 after irradiation), 0/8; in test [2] (day 4 after irradiation), 8/8. Moreover, the Mortality was 0/9 in test [1] (day 0 after irradiation); 0/9 in test [1] (day 3 after irradiation); 0/9 in test [1] (day 4 after irradiation); 0/9 in test [1] (day 5 after irradiation); 3/9 in test [1] (day 6 after irradiation); 9/9 in test [1] (day 7 after irradiation). For the same substance, the Mortality is on record as 0/8 in test [2] (day 0 after irradiation); 0/8 in test [2] (day 3 after irradiation); 0/8 in test [2] (day 4 after irradiation); 0/8 in test [2] (day 5 after irradiation); 7/8 in test [2] (day 6 after irradiation); 8/8 in test [2] (day 7 after irradiation). Moreover, the “septic shock in mice (in words)” value in test [3] is listed as “inhibited septic shock in mice”.

MTR: the “Sickness Score, individual mouse” value in test [4] (setting [5]) is 0; in test [4] (setting [6]), 0; in test [4] (setting [7]), 2; in test [4] (setting [8]) it was 2; in test [4] (setting [9]) it was 2 (4×) and 4 and 3; in test [4] (setting [10]) it was “dead and 3 and 2 (3×) and 4”. In addition, the “Sickness Score, individual mouse” value in test [4] (setting [11]) is 1 and 2 (2×) and 5 and 4 and 3; in test [4] (setting [12]), 3 and 2 (3×) and 5; in test [4] (setting [13]), 1 and 2 (2×) and dead and 4 and 5; in test [4] (setting [14]), 5 and 2 (2×) and 4 and dead; in test [4] (setting [15]) it was 1 (2×) and dead (2×) and 2; in test [4] (setting [16]), “dead (2×) and 2 (2×)”. Further, the Survival % in test [4] (setting [17]) was found to be 50%; in test [4] (setting [18]), 33%.

For the substance AQGV, the “Sickness Score, individual mouse” value in test [4] (setting [5]) was 0; in test [4] (setting [6]), 0; in test [4] (setting [7]), 2; in test [4] (setting [8]) it was 2; in test [4] (setting [9]) it was 3 (2×) and 2 (3×) and 4; in test [4] (setting [10]) it was 2 (4×) and 3 and 4. In addition, the “Sickness Score, individual mouse” value is 3 (2×) and 2 (3×) and 4 in test [4] (setting [11]); 2 (3×) and 3 (2×) and 5 in test [4] (setting [12]); 2 and 3 and 1 (3×) and 5 in test [4] (setting [13]); 2 (5×) and dead in test [4] (setting [14]); 1 (5×) and dead in test [4] (setting [15]); 2 (3×) and 1 (2×) in test [4] (setting [16]). Besides, the Survival % in test [4] (setting [17]) and in test [4] (setting [18]) was 83% each time.
